In ChEMBL document CHEMBL5338807, “Design and Synthesis of Bouchardatine Derivatives as a Novel AMP-Activated Protein Kinase Activator for the Treatment of Colorectal Cancer” (J Med Chem, 2023):
Calls of active or inactive are those of the source. The rule behind the calls is not given here.

Tests used:
Assay type in all cases: functional, cell-based
RKO [1] = test: Antiproliferative activity against human RKO cells assessed as reduction in cell viability incubated for 24 hrs
RKO [2] = test: Effect on energy metabolism in human RKO cells assessed as decrease in AMP level incubated for 24 hrs by luminescence based analysis
RKO [3] = test: Effect on metabolism in human RKO cells assessed as enhancement of oxidative phosphorylation at 2 mM measured after 24 hrs by seahorse analysis
RKO [4] = test: Effect on energy metabolism in human RKO cells assessed as decrease in ATP production incubated for 24 hrs by luminescence based analysis
RKO [5] = test: Inhibition of cell migration of human RKO cells at 1 uM incubated for 48 hrs by wound healing assay
RKO [6] = test: Antiproliferative activity against human RKO cells assessed as inhibition of colony formation at 1 uM measured after 7 days by crystal violet staining based assay; conditions: time 7.0 day
RKO [7] = test: Effect on metabolism in human RKO cells assessed as activation of oxidative phosphorylation at 1 uM measured after 24 hrs by seahorse analysis

Compound	IC50 (RKO [1]) [µM]	other results
CC(=O)c1c(-c2nc(NCCN(C)C)c3ccccc3n2)[nH]c2ccccc12	> 10	–
O=Cc1c(-c2nc(NCC(F)F)c3ccccc3n2)[nH]c2ccccc12	7.9	–
Cc1c(-c2nc(NCCCN3CCN(C)CC3)c3ccccc3n2)[nH]c2ccccc12	> 10	–
NC(=O)c1ncn([C@@H]2O[C@H](CO)[C@@H](O)[C@H]2O)c1N	–	Activity (RKO [2]): Active; Activity (RKO [3]): Active; Activity (RKO [4]): Active
O=Cc1c(-c2nc(NCCNC(=O)C3CC3)c3ccccc3n2)[nH]c2ccccc12	1.2	–
O=Cc1c(-c2nc(NCCN3CCCC3)c3ccccc3n2)[nH]c2ccc(Cl)cc12	2.5	–
CCCC(=O)Nc1nc(-c2[nH]c3ccccc3c2C=O)nc2ccccc12	> 10	–
COc1ccc2[nH]c(-c3nc(NCCN4CCCC4)c4ccccc4n3)c(C=O)c2c1	1.6	–
CC(=O)c1c(-c2nc(NCCN3CCCCC3)c3ccccc3n2)[nH]c2ccccc12	9.5	–
O=Cc1c(-c2nc(NCCO)c3ccccc3n2)[nH]c2ccccc12	> 10	–
CCCS(=O)(=O)Nc1nc(-c2[nH]c3ccccc3c2C=O)nc2ccccc12	> 10	–
Cc1c(-c2nc(N(C)CCCN(C)C)c3ccccc3n2)[nH]c2ccccc12	> 10	–
Cc1ccc2[nH]c(-c3nc(NCCCN(C)C)c4ccccc4n3)c(C=O)c2c1	2	–
COc1ccc2[nH]c(-c3nc(NCCCN(C)C)c4ccccc4n3)c(C=O)c2c1	8.1	–
O=Cc1c(-c2nc(NCCCC(F)(F)F)c3ccccc3n2)[nH]c2ccccc12	4.6	–
O=Cc1c(-c2nc(NCCCC(=O)O)c3ccccc3n2)[nH]c2ccccc12	> 10	–
O=Cc1c(-c2nc(NCCc3ccccc3)c3ccccc3n2)[nH]c2ccccc12	0.8	inhibition (RKO [5]): Active; inhibition (RKO [6]): Active; Activity (RKO [7]): inactive
Cc1ccc2[nH]c(-c3nc(NCCN4CCCC4)c4ccccc4n3)c(C=O)c2c1	0.7	inhibition (RKO [5]): Active; inhibition (RKO [6]): Active; Activity (RKO [7]): Active
CN(C)CCCN(CCCN(C)C)c1nc(-c2[nH]c3ccccc3c2C=O)nc2ccccc12	1.8	–
CN(C)CCCNc1nc(-c2[nH]c3ccc(Cl)cc3c2C=O)nc2ccccc12	4.1	–
CN(C)CCNc1nc(-c2[nH]c3ccc(F)cc3c2C=O)nc2ccccc12	1.7	–
O=Cc1c(-c2nc(NC(=O)c3cccnc3)c3ccccc3n2)[nH]c2ccccc12	> 10	–
O=Cc1c(-c2nc(NCCN3CCCC3)c3ccccc3n2)[nH]c2ccc(F)cc12	2.1	–
Cc1ccc(S(=O)(=O)Nc2nc(-c3[nH]c4ccccc4c3C=O)nc3ccccc23)cc1	> 10	–
O=Cc1c(-c2nc(NCCCC(=O)N3CCCC3)c3ccccc3n2)[nH]c2ccccc12	8.7	–
CCN1CCC[C@H]1CNc1nc(-c2[nH]c3ccccc3c2C=O)nc2ccccc12	0.9	inhibition (RKO [5]): Active; inhibition (RKO [6]): Active; Activity (RKO [7]): Active
